In PubChem BioAssay AID1963435 (Molecular Pharmacology Branch, DTP, NCI, 2024):

Test system: PANC-1 complex spheroid growth, percent test/control
Assay: Anticancer human tumor PANC-1 cell line growth inhibition [Asc];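 also: spheroids exposed to agents for 7 days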;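 as to viability, T/C: percent viability relative to DMSO vehicle wells taken as 100%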
Conditions: for IC50: curve of first compound; for viability, T/C: stronger effect = lower value
Outline: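 Tumor cells were grown as multicellular spheroids with stromal HUVEC and mesenchymal stem cells and treated singly or in combination. Concentrations fell in half-log steps from the clinical Cmax, or from 10 microM where none was known.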

[1] = second compound 0.00949 µM, first compound 0.0316 µM
[2] = second compound 0.00949 µM, first compound 0.1 µM
[3] = second compound 0.00949 µM, first compound 0.316 µM
[4] = second compound 0.00949 µM, first compound 1 µM
[5] = second compound 0.00949 µM, first compound 3.16 µM
[6] = second compound 0.00949 µM, first compound 10 µM
[7] = second compound 0.03 µM, first compound 0.0316 µM
[8] = second compound 0.03 µM, first compound 0.1 µM
[9] = second compound 0.03 µM, first compound 0.316 µM
[10] = second compound 0.03 µM, first compound 1 µM
[11] = second compound 0.03 µM, first compound 3.16 µM
[12] = second compound 0.03 µM, first compound 10 µM
[13] = second compound 0.0949 µM, first compound 0.0316 µM
[14] = second compound 0.0949 µM, first compound 0.1 µM
[15] = second compound 0.0949 µM, first compound 0.316 µM
[16] = second compound 0.0949 µM, first compound 1 µM
[17] = second compound 0.0949 µM, first compound 3.16 µM
[18] = second compound 0.0949 µM, first compound 10 µM
[19] = second compound 0.3 µM, first compound 0.0316 µM
[20] = second compound 0.3 µM, first compound 0.1 µM
[21] = second compound 0.3 µM, first compound 0.316 µM
[22] = second compound 0.3 µM, first compound 1 µM
[23] = second compound 0.3 µM, first compound 3.16 µM
[24] = second compound 0.3 µM, first compound 10 µM
[25] = second compound 0.949 µM, first compound 0.0316 µM
[26] = second compound 0.949 µM, first compound 0.1 µM
[27] = second compound 0.949 µM, first compound 0.316 µM
[28] = second compound 0.949 µM, first compound 1 µM
[29] = second compound 0.949 µM, first compound 3.16 µM
[30] = second compound 0.949 µM, first compound 10 µM
[31] = second compound 3 µM, first compound 0.0316 µM
[32] = second compound 3 µM, first compound 0.1 µM
[33] = second compound 3 µM, first compound 0.316 µM
[34] = second compound 3 µM, first compound 1 µM
[35] = second compound 3 µM, first compound 3.16 µM
[36] = second compound 3 µM, first compound 10 µM

Work on `C#Cc1c(F)ccc2cc(O)cc(-c3ncc4c(N5CC6CCC(C5)N6)nc(OCC56CCCN5CC(F)C6)nc4c3F)c12` (stereo unspecified) + CCN1C(C(=O)NC23CCC(C(=O)O)(CC2)CC3)C(c2cccc(Cl)c2F)C2(C(=O)Nc3cc(Cl)ccc32)C12CCCCC2 yielded an IC50 (second compound 0.00949 µM) greater than 10 µM, an IC50 (second compound 0.03 µM) greater than 10 µM and an IC50 (second compound 0.0949 µM) greater than 10 µM. It also gave an IC50 (second compound 0.3 µM) greater than 10 µM, an IC50 (second compound 0.949 µM) greater than 10 µM and an IC50 (second compound 3 µM) greater than 10 µM. For the same compound, the viability, T/C [1] was 99.1%, the viability, T/C [2] was 79.1% and the viability, T/C [3] was 89.9%. For the same compound, the viability, T/C [4] was 90.8%, the viability, T/C [5] was 96.3% and the viability, T/C [6] was 84%. It also gave a viability, T/C [7] of 93.3%, a viability, T/C [8] of 90.2% and a viability, T/C [9] of 83.4%. The viability, T/C [10] was 92.6%, the viability, T/C [11] was 94.3% and the viability, T/C [12] was 82.3%. For the same compound, the viability, T/C [13] was 94%, the viability, T/C [14] was 84.3% and the viability, T/C [15] was 85%. For the same compound, the viability, T/C [16] was 82.2%, the viability, T/C [17] was 90.6% and the viability, T/C [18] was 88.8%. The viability, T/C [19] was 97%, the viability, T/C [20] was 84.3% and the viability, T/C [21] was 92.6%. It also gave a viability, T/C [22] of 93.2%, a viability, T/C [23] of 98.7% and a viability, T/C [24] of 90.9%. For the same compound, the viability, T/C [25] was 98.4%, the viability, T/C [26] was 85.5% and the viability, T/C [27] was 92.8%. The viability, T/C [28] was 90.5%, the viability, T/C [29] was 93.7% and the viability, T/C [30] was 82.8%. The viability, T/C [31] was 104%, the viability, T/C [32] was 91.7% and the viability, T/C [33] was 89.2%. The viability, T/C [34] was 87.7%, the viability, T/C [35] was 95.1% and the viability, T/C [36] was 82.6%.
`C=C(F)C(=O)N1CCN(c2nc(OCC3CCCN3C)nc3c2CCN(c2cccc4cccc(Cl)c24)C3)CC1CC#N` (stereo unspecified) + CCN1C(C(=O)NC23CCC(C(=O)O)(CC2)CC3)C(c2cccc(Cl)c2F)C2(C(=O)Nc3cc(Cl)ccc32)C12CCCCC2 showed an IC50 (second compound 0.00949 µM) of 7.22 µM, an IC50 (second compound 0.03 µM) of 6.88 µM and an IC50 (second compound 0.0949 µM) of 6.94 µM. For the same compound, the IC50 (second compound 0.3 µM) was 7.25 µM, the IC50 (second compound 0.949 µM) was 7.02 µM and the IC50 (second compound 3 µM) was 7.78 µM. It also gave a viability, T/C [1] of 99%, a viability, T/C [2] of 89.5% and a viability, T/C [3] of 88.4%. It also gave a viability, T/C [4] of 98.5%, a viability, T/C [5] of 105% and a viability, T/C [6] of 31.7%. The viability, T/C [7] was 103%, the viability, T/C [8] was 96.7% and the viability, T/C [9] was 97%. It also gave a viability, T/C [10] of 97.7%, a viability, T/C [11] of 88% and a viability, T/C [12] of 31.6%. It also gave a viability, T/C [13] of 105%, a viability, T/C [14] of 102% and a viability, T/C [15] of 108%. The viability, T/C [16] was 109%, the viability, T/C [17] was 106% and the viability, T/C [18] was 24.1%. It also gave a viability, T/C [19] of 99.5%, a viability, T/C [20] of 93.1% and a viability, T/C [21] of 103%. It also gave a viability, T/C [22] of 108%, a viability, T/C [23] of 100% and a viability, T/C [24] of 30.5%. The viability, T/C [25] was 117%, the viability, T/C [26] was 104% and the viability, T/C [27] was 114%. The viability, T/C [28] was 109%, the viability, T/C [29] was 97.1% and the viability, T/C [30] was 28.9%. For the same compound, the viability, T/C [31] was 112%, the viability, T/C [32] was 108% and the viability, T/C [33] was 115%. The viability, T/C [34] was 126%, the viability, T/C [35] was 96.7% and the viability, T/C [36] was 37%.
Work on `CNC(C)C(=O)NC1CN(S(=O)(=O)c2cccc(S(=O)(=O)N3CCC4CCC(C(=O)NC(c5ccccc5)c5ccccc5)N4C(=O)C(NC(=O)C(C)NC)C3)c2)CCC2CCC(C(=O)NC(c3ccccc3)c3ccccc3)N2C1=O` (stereo unspecified) + CCN1C(C(=O)NC23CCC(C(=O)O)(CC2)CC3)C(c2cccc(Cl)c2F)C2(C(=O)Nc3cc(Cl)ccc32)C12CCCCC2 yielded an IC50 (second compound 0.00949 µM) greater than 1 µM, an IC50 (second compound 0.03 µM) greater than 1 µM and an IC50 (second compound 0.0949 µM) greater than 1 µM. For the same compound, the IC50 (second compound 0.3 µM) was greater than 1 µM, the IC50 (second compound 0.949 µM) was greater than 1 µM and the IC50 (second compound 3 µM) was greater than 1 µM. The viability, T/C (second compound 0.00949 µM, first compound 0.00316 µM) was 104%, the viability, T/C (second compound 0.00949 µM, first compound 0.01 µM) was 96.6% and the viability, T/C [1] was 103%. The viability, T/C [2] was 89.4%, the viability, T/C [3] was 97% and the viability, T/C [4] was 86.5%. It also gave a viability, T/C (second compound 0.03 µM, first compound 0.00316 µM) of 103%, a viability, T/C (second compound 0.03 µM, first compound 0.01 µM) of 93.9% and a viability, T/C [7] of 90.9%. The viability, T/C [8] was 93.8%, the viability, T/C [9] was 97.2% and the viability, T/C [10] was 85.4%. It also gave a viability, T/C (second compound 0.0949 µM, first compound 0.00316 µM) of 90.3%, a viability, T/C (second compound 0.0949 µM, first compound 0.01 µM) of 96.9% and a viability, T/C [13] of 89.4%. It also gave a viability, T/C [14] of 91.2%, a viability, T/C [15] of 92.2% and a viability, T/C [16] of 86.8%. It also gave a viability, T/C (second compound 0.3 µM, first compound 0.00316 µM) of 114%, a viability, T/C (second compound 0.3 µM, first compound 0.01 µM) of 94.1% and a viability, T/C [19] of 90.7%. The viability, T/C [20] was 101%, the viability, T/C [21] was 91.3% and the viability, T/C [22] was 90.6%. It also gave a viability, T/C (second compound 0.949 µM, first compound 0.00316 µM) of 106%, a viability, T/C (second compound 0.949 µM, first compound 0.01 µM) of 100% and a viability, T/C [25] of 106%. The viability, T/C [26] was 97.8%, the viability, T/C [27] was 100% and the viability, T/C [28] was 93.2%. For the same compound, the viability, T/C (second compound 3 µM, first compound 0.00316 µM) was 113%, the viability, T/C (second compound 3 µM, first compound 0.01 µM) was 111% and the viability, T/C [31] was 108%. The viability, T/C [32] was 103%, the viability, T/C [33] was 109% and the viability, T/C [34] was 89.1%.
